Values of other authors as cited in patent US20080317729A1, “Ammonium Salts and Ammonium Salt/Mineral Salt Clathrate Compounds for Use as Vehicle and Effective Form for Pharmaco-Medical Applications and for Use as Phase Transfer Agents for Chemical Applications” (priority 2004, published 2008).

Question: Which solubility does the source give for `CCN(CC)CCOC(=O)c1ccc(N)cc1` [diprocainium carbonate] here?
Answer: The solubility was “moderately dissoluble”.
